# In patent US11840686B2, “Modulation of prekallikrein (PKK) expression” (Ionis Pharmaceuticals, Inc., priority 2013, dated 2023):
# Strand notation (5' to 3'): a small letter for the sugar, then the base; units joined by * are phosphorothioate-linked, units joined directly phosphodiester-linked; [ ] holds rarer units or linkages, { } end groups; capitals alone tell only the bases. e = 2'-O-(2-methoxyethyl) (MOE); [5mC] = 5-methylcytosine; d = 2'-deoxy (DNA)
# Tested on: human PKK mRNA
# Test: Antisense inhibition of human PKK mRNA in HepaRG cells, 5,000 nM (Example 2)
# Type: cell-based
# Description: Additional antisense oligonucleotides were designed targeting a PKK nucleic acid and were tested for their effects on PKK mRNA in vitro.
# The chimeric antisense oligonucleotides in the tables below were designed as 5-10-5 MOE gapmers, 4-9-4 MOE gapmers, 4-10-4 MOE gapmers, 4-10-3 MOE gapmers, 3-10-4 MOE gapmers, or 3-10-3 MOE gapmers. The 5-10-5 MOE gapmers are 20 nucleosides in length, wherein the central gap segment comprises of ten 2′-deoxynucleosides and is flanked by wing segments on the 5′ direction and the 3′ direction comprising five nucleosides each. The 4-9-4 MOE gapmers are 17 nucleosides in length, wherein the central gap segment comprises of nine 2′-deoxynucleosides and is flanked by wing segments on the 5′ direction and the 3′ direction comprising four nucleosides each. The 4-10-4 MOE gapmers are 18 nucleosides in length, wherein the central gap segment comprises of ten 2′-deoxynucleosides and is flanked by wing segments on the 5′ direction and the 3′ direction comprising four nucleosides each. The 4-10-3 MOE gapmers are 17 nucleosides in length, wherein the central gap segment comprises of ten 2′-deoxynucleosides and is flanked by wing segments on the 5′ direction and the 3′ direction comprising four and three nucleosides respectively. The 3-10-4 MOE gapmers are 17 nucleosides in length, wherein the central gap segment comprises often 2′-deoxynucleosides and is flanked by wing segments on the 5′ direction and the 3′ direction comprising three and four nucleosides respectively. The 3-10-3 MOE gapmers are 16 nucleosides in length, wherein the central gap segment comprises of ten 2′-deoxynucleosides and is flanked by wing segments on the 5′ direction and the 3′ direction comprising three nucleosides each. Each nucleoside in the 5′ wing segment and each nucleoside in the 3′ wing segment has a 2′-O-methoxyethyl modification. The internucleoside linkages throughout each gapmer are phosphorothioate linkages. All cytosine residues throughout each gapmer are 5-methylcytosines. “Start site” indicates the 5′-most nucleoside to which the gapmer is targeted in the human gene sequence. “Stop site” indicates the 3′-most nucleoside to which the gapmer is targeted in the human gene sequence.
# Cultured HepaRG™ cells at a density of 20,000 cells per well were transfected using electroporation with 5,000 nM antisense oligonucleotide. After a treatment period of approximately 24 hours, RNA was isolated from the cells and PKK mRNA levels were measured by quantitative real-time PCR. Human primer probe set RTS3454 was used to measure mRNA levels. PKK mRNA levels were adjusted according to total RNA content, as measured by RIBOGREEN®. The antisense oligonucleotides were tested in a series of experiments that had similar culture conditions. Results are presented as percent inhibition of PKK, relative to untreated control cells.
# [1] = HepaRG cells, electroporation, 5,000 nM antisense oligonucleotide, approx. 24 hours, primer probe set RTS3454, relative to untreated control cells, Table 11
# [2] = HepaRG cells, electroporation, 5,000 nM antisense oligonucleotide, approx. 24 hours, primer probe set RTS3454, relative to untreated control cells, Table 12
# [3] = HepaRG cells, 5,000 nM antisense oligonucleotide, 5-10-5 gapmers, Table 17
# [4] = HepaRG cells, 5,000 nM antisense oligonucleotide, 5-10-5 gapmers, Table 16
# [5] = Table 7, HepaRG cells, electroporation with 5,000 nM antisense oligonucleotide, approx. 24 hours, PKK mRNA by RT-PCR (RTS3454), relative to untreated control cells
substance,measurement,setting,value
547517 (antisense eT*eA*eG*eG*eA*dT*dG*d[5mC]*dA*dA*dA*dG*dA*dA*dG*eA*eT*eG*e[5mC]*e[5mC]) [compound 547517],% inhibition,[1],57%
547650 (eG*eT*eA*e[5mC]*e[5mC]*dT*dA*dT*dA*dA*d[5mC]*dA*dG*dT*dA*eT*e[5mC]*eA*e[5mC]*eT; antisense) [compound 547650],% inhibition,"human PKK mRNA, HepaRG cells, 5-10-5 motif oligonucleotides targeting SEQ ID NO: 1 and 10",32%
546397 (eT*eT*eT*eT*eT*dT*dG*dA*dT*d[5mC]*dT*dT*dT*d[5mC]*dA*e[5mC]*e[5mC]*eA*eT*eT; antisense) [compound 546397],% inhibition,[2],55%
546146 (eT*eG*eA*eG*eT*d[5mC]*dA*dG*dA*d[5mC]*dA*dT*d[5mC]*d[5mC]*dA*e[5mC]*eA*eG*eG*eA; antisense) [compound 546146],% inhibition,"HepaRG cells, electroporation with 5,000 nM antisense oligonucleotide, approximately 24 hours, PKK mRNA by RT-PCR (RTS3454), relative to untreated control cells, Table 5 experiment",72%
547748 (eG*eG*eT*eT*eG*dG*dT*dG*dG*d[5mC]*dG*dG*dG*dA*dT*e[5mC]*eG*eG*eT*eG; antisense) [compound 547748],% inhibition,[3],78%
547678 (antisense eT*eA*e[5mC]*e[5mC]*eT*dA*dT*dA*dT*d[5mC]*dA*d[5mC]*dT*dG*dT*eA*eA*e[5mC]*eT*eA) [compound 547678],% inhibition,[4],21%
547543 (antisense eT*eT*eT*eT*e[5mC]*d[5mC]*dA*dT*dG*d[5mC]*dA*dT*dA*d[5mC]*dT*e[5mC]*eG*e[5mC]*e[5mC]*eT) [compound 547543],% inhibition,[2],54%
547323 (antisense eT*eT*eG*e[5mC]*eT*dT*d[5mC]*dA*dA*dG*dG*dA*dA*dT*dG*eT*e[5mC]*e[5mC]*eA*eG) [compound 547323],% inhibition,"HepaRG cells, electroporation with 5,000 nM antisense oligonucleotide, approximately 24 hours, PKK mRNA by RT-PCR (RTS3454), relative to untreated control cells, Table 6 experiment",56%
546233 (eA*eT*eG*eG*eT*dG*dT*dT*dT*dT*d[5mC]*dT*dT*dG*dA*eG*eG*eA*eG*eT; antisense) [compound 546233],% inhibition,[5],69%
547389 (e[5mC]*eA*eG*eA*eT*dA*dT*dG*dG*dT*dG*dT*dT*dT*dT*e[5mC]*eT*eT*eG*eA; antisense) [compound 547389],% inhibition,[5],61%
547539 (antisense eA*eG*eA*eA*e[5mC]*dT*d[5mC]*d[5mC]*dA*dG*d[5mC]*dA*dG*dA*dA*eA*eT*e[5mC]*e[5mC]*eT) [compound 547539],% inhibition,[2],43%
547055 (eG*e[5mC]*eT*e[5mC]*e[5mC]*dT*dG*dG*d[5mC]*dA*dG*d[5mC]*dA*dA*dT*eG*eA*e[5mC]*e[5mC]*e[5mC]; antisense) [compound 547055],% inhibition,[3],70%
547702 (antisense eA*e[5mC]*eA*eT*e[5mC]*dA*d[5mC]*dT*dG*dT*dA*d[5mC]*d[5mC]*dT*dA*eT*eA*eA*e[5mC]*eT) [compound 547702],% inhibition,[4],44%
546347 (antisense eA*e[5mC]*eT*eA*eA*dG*dG*dG*dA*d[5mC]*d[5mC]*dA*d[5mC]*d[5mC]*dT*eG*eA*eA*eT*e[5mC]) [compound 546347],% inhibition,"Table 9 experiment, HepaRG cells, 20,000 cells per well, electroporation with 5,000 nM antisense oligonucleotide, approx. 24 hours, PKK mRNA by RT-PCR (RTS3454), relative to untreated control cells",28%
same,% inhibition,"Table 10 experiment, HepaRG cells, 20,000 cells per well, electroporation with 5,000 nM antisense oligonucleotide, approx. 24 hours, PKK mRNA by RT-PCR (RTS3454), relative to untreated control cells",22%
546373 (antisense e[5mC]*eT*e[5mC]*eA*eG*dA*dA*dT*dT*dT*dG*dA*d[5mC]*dT*dT*eG*eA*eA*e[5mC]*eT) [compound 546373],% inhibition,[1],59%
547685 (antisense eA*eT*eA*eA*e[5mC]*dT*dA*dT*dA*dT*d[5mC]*dA*d[5mC]*dT*dG*eT*e[5mC]*e[5mC]*eT*eA) [compound 547685],% inhibition,[4],35%
547606 (antisense eA*eA*e[5mC]*eA*eA*dT*dA*dT*d[5mC]*dA*d[5mC]*dT*dG*dT*dA*e[5mC]*e[5mC]*eT*eA*eT) [compound 547606],% inhibition,"human PKK mRNA in HepaRG cells, 5-10-5 gapmers, Table 14",43%
548709 (DNA eG*eT*eA*d[5mC]*dT*dA*dG*dT*dT*dT*d[5mC]*d[5mC]*dT*eA*eT*eA; antisense) [compound 548709],% inhibition,"HepaRG cells, 5,000 nM antisense oligonucleotide, human PKK mRNA, Table 18",0%
546230 (antisense eG*eT*eG*eT*eG*d[5mC]*d[5mC]*dA*d[5mC]*dT*dT*dT*d[5mC]*dA*dG*eA*eT*eG*eT*eT) [compound 546230],% inhibition,[5],70%
547029 (eT*e[5mC]*eT*eT*e[5mC]*dT*dA*dG*dG*dG*d[5mC]*d[5mC]*dA*d[5mC]*dA*e[5mC]*e[5mC]*eT*e[5mC]*eT; antisense) [compound 547029],% inhibition,[3],50%
